Results taken from paper PMC4633953, “FR171456 is a specific inhibitor of mammalian NSDHL and yeast Erg26p” (Nature Communications, 2015).
Values joined by “and” are separate entries in the source; they are usually repeats but may differ in a detail not shown here. Equal entries are not always repeated.

Assays:
[1] = molecular target: T1, Erg26p (Saccharomyces cerevisiae, UniProt P53199); assay: biochemical
T1 sequence (P53199 1-349): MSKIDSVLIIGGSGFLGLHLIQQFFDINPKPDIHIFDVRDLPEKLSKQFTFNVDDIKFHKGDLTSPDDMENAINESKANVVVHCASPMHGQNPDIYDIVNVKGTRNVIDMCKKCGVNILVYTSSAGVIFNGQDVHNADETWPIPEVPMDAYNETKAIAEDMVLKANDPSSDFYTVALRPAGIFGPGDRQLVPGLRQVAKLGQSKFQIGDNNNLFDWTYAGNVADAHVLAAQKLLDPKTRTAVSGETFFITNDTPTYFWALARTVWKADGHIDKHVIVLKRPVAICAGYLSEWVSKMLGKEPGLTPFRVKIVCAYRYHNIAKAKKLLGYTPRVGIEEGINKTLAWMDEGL
Experimental: (§1) To test this hypothesis an in vitro microsomal Erg26p activity assay[30] was used. Erg26p activity was directly assessed in the presence of increasing concentrations of FR171456 (10 nM–0.1 mM) in the presence of 150 μM carboxysterol substrate (Fig. 1c) and the cofactor NAD^+ (0.5 mM) followed by GC-MS detection of the product 4α-methyl-cholest-8,24-dien-3-one.
(§2) Wild-type yeast (FL200) microsomes were prepared as follows. Yeast cells were disrupted by glass bead homogenization (0.45-mm diameter) in 100 mM phosphate buffer (pH 7.5) containing 1.5 mM reduced glutathione and 30 mM nicotinamide for 8 min at 0 °C[44]. The cell extract was obtained by centrifugation at 10,000 × g for 20 min. Microsomes were then isolated by centrifuging the cell extract supernatant at 100,000 × g for 90 min. The resulting microsomal pellet was resuspended in 100 mM phosphate buffer (pH 7.5) containing 3 mM reduced glutathione and 20% glycerol (v/v) using an Elvehjem–Potter homogenizer. Yeast microsomes (1.2 mg of protein) were incubated in the presence of 4α-carboxy-4β-methyl-cholest-8,24-dien-3β-ol (50–300 mM) and NAD^+ (0.5 mM) for 35–45 min at 30 °C. After addition of coprostanone (2–6 μg) as internal standard, the reactions were extracted as described previously[12]. The extract was analysed by TLC on silica gel and eluted twice with CH2Cl2. The fraction migrating between a standard of 4-desmethyl-sterone (RF= 0.50) and 4,4-dimethyl-sterone (RF=0.70) was eluted and analysed using a GC-MS spectrometer (Agilent 5973 N).
(§3) In the case of inhibition assays, microsomes were incubated for 35–45 min at 30 °C in the presence of 4α-carboxy-4β-methyl-cholest-8,24-dien-3β-ol (50–300 mM) and a range of inhibitor concentration (0.01–100 μM) from which a dose–response curve was obtained allowing the corresponding I50 values to be determined.
(§4) The GC-MS spectrometer (Agilent 5973 N) was equipped with an ‘on column' injector and a capillary column (30 × 0.25 mm) coated with DB5 (H2 flow rate of 2 ml min^−1). The temperature program included a 30 °C min^−1 increase from 60 °C to 240 °C, and followed by a 2 °C/min increase from 240 °C to 280 °C. The areas of the GC peaks of coprostanone (tR=1.000) and of the produced 4α-methyl-cholest-8,24-dien-3-one (tR=1.139), corrected from endogenous component of the same tR (1.139) determined in the blank (boiled microsomes), allowed the rate of transformation of 4α-carboxy-4β-methyl-cholest-8,24-dien-3β-ol to be measured. Under these conditions, the estimated limit of detection of the 3βHSD/D activity was 0.1 nmol h^−1 mg^−1.

[2] = tested on: panel of 24 receptors/enzymes; assay: Pharmacological profiling against a panel of 24 receptors/enzymes; type: binding
[3] = tested on: S. cerevisiae (BY4743 strain); assay: Yeast growth inhibition dose response (OD600); type: cell-based; settings: BY4743, 14 h, 30 °C, YPD, 2% DMSO
Experimental: Figure 2 FR171456 targets Erg26p in S. cerevisiae. (a) Structures of FR171456, and two related triterpenes (compound 1, compound 2). (b) Duplicate 12-point Dose response curves of wild-type diploid yeast with three compounds in a. Strain BY4743 was grown for 14 h at 30 °C in YPD media with 2% DMSO containing a dilution series of FR171456: black; Compound-1: light grey circles, and Compound-2: light grey squares. Y axis: OD600 absorbance indicating yeast growth, x axis: compound concentrations (log10 μM). (c) Haploinsufficiency and homozygous profiling (HIP resp. HOP) for FR171456 at 4 μM. Each mutant strain in the pool is represented by a circle (non-essential genes) or a square (essential genes). The, y axis represents strain sensitivity and x axis represents z-score (specificity). In (d), the z-scores of the HIP pool strains (y axis) plotted against increasing doses of FR171456 (x axis; μM). (e) Relative compound sensitivity profile of the erg26Δ/ERG26 strain across HIP experiments performed with 1,800 diverse small molecule yeast proliferation inhibitors. TEXT PRINTED IN THE PICTURE: (a) FR171456: MW 516.68; S.c. […] IC50 >200 μM | (a) Compound 2: MW 532.68; S.c. IC50 >200 μM

[4] = tested on: Candida parapsilosis NF2903; assay: Antifungal MIC; type: cell-based; settings: Lodderomyces parapsilosis
[5] = tested on: K562; assay: Mammalian cell proliferation, K562; type: cell-based
[6] = tested on: Scedosporium apiospermum NF4908; assay: Antifungal MIC; type: cell-based
[7] = molecular target: T1, Erg26p; assay: In vitro microsomal Erg26p activity assay (GC-MS)
Experimental: as §1, §2, §3, §4

## C=C(CCC(C)C1CCC2C1(C)CC(O)C13CC14C(=O)CC(O)C(C)(C(=O)O)C4C(=O)CC23O)C(C)C [FR171456, (1R,2aR,3R,5aR,5bS,7aR,8S,9S,11aS,12aR)-1,5b,9-trihydroxy-2a,8-dimethyl-3-((R)-6-methyl-5-methyleneheptan-2-yl)-7,11-dioxohexadecahydrocyclopenta[a]cyclopropa[e]-phenanthrene-8-carboxylic acid]
[1]
  IC50: 2.2 ± 0.5 µM
[2]
  specificity in receptor/enzyme panel: only one target with significant binding
[3]
  IC50: 13.6 µM
[3]; Saccharomyces cerevisiae, 14 h
  IC50: 14 µM
[4]
  MIC: 32 µg/mL and 72 µM
[5]
  concentration affecting proliferation: 36 µM
[6]
  MIC: 64 µg/mL and 144 µM
[7]
  Ki: 1.35 ± 0.3 µM
[7]; for the carboxysterol substrate
  I50/Km ratio: ~4 × 10^−3
